Entries after “also recorded” stand apart in the source; their conditions may differ.
Legend:
yeast [PSI^+] prion [1] = format: cell-based
[URE3] prion = format: cell-based
yeast [PSI^+] prion [2] = conditions: cited from earlier work

| Structure (SMILES) | activity against yeast [PSI+] prion (halo of red colonies) (yeast [PSI^+] prion [1]) | activity in the yeast-based method (earlier study) (yeast [PSI^+] prion [2]) | other results |
| --- | --- | --- | --- |
| Clc1cccc(Cl)c1N=C1NCCN1 [Clonidine] | – | – | anti-prion activity (data not shown) (yeast [PSI^+] prion [1]): did not exhibit any anti-prion activity |
| CC(=O)O.N=C(N)N/N=C/c1c(Cl)cccc1Cl [Guanabenz acetate] | strongly active; also recorded: very active | – | activity against [URE3] prion ([URE3] prion): also active; also recorded: also very active |
| N=C(N)N/N=C/c1c(Cl)ccc(Cl)c1Cl [PSI210] | strongest activity; also recorded: more potent than Guanabenz itself | – | – |
| CN(C)CCCN1c2ccccc2Sc2ccc(Cl)cc21 [chlorpromazine] | – | active | – |
| CCN(CC)CCCC(C)Nc1c2ccc(Cl)cc2nc2ccc(OC)cc12 (stereo not drawn) [quinacrine] | – | active | – |
